Assay results reported in ChEMBL document CHEMBL5223095, “Structure activity relationship of N-1 substituted 1,5-naphthyrid-2-one analogs of oxabicyclooctane-linked novel bacterial topoisomerase inhibitors as broad-spectrum antibacterial agents (Part-9)” (Bioorg Med Chem Lett, 2022).
Values after ≈ are worked out from the molar mass of the structure shown.

Legend:
Format in all cases: functional
Acinetobacter baumannii = assay: Antibacterial activity against Acinetobacter baumannii IID876 assessed as bacterial growth inhibition by CLSI protocol agar-based assay
Streptococcus pneumoniae = assay: Antibacterial activity against Streptococcus pneumoniae IID553 assessed as bacterial growth inhibition by CLSI protocol agar-based assay
Enterococcus faecium = assay: Antibacterial activity against Vanomycin-resistant Enterococcus faecium assessed as bacterial growth inhibition by CLSI protocol agar-based assay
Staphylococcus aureus = assay: Antibacterial activity against methicillin-resistant Staphylococcus aureus OITII-971 assessed as bacterial growth inhibition by CLSI protocol agar-based assay
Escherichia coli = assay: Antibacterial activity against Escherichia coli ATCC 25922 assessed as bacterial growth inhibition by CLSI protocol agar-based assay
Pseudomonas aeruginosa = assay: Antibacterial activity against Pseudomonas aeruginosa PAO1 assessed as bacterial growth inhibition by CLSI protocol agar-based assay

Row | Structure (SMILES) | MIC (Acinetobacter baumannii) | MIC (Streptococcus pneumoniae) | MIC (Enterococcus faecium) | MIC (Staphylococcus aureus) | MIC (Escherichia coli) | MIC (Pseudomonas aeruginosa)
1 | NCCn1c(=O)ccc2ncc(F)c(CCC34CCC(NCc5ccc6c(n5)NC(=O)CO6)(CC3)CO4)c21 | 16 µg/mL (≈ 30.6 µM) | 1 µg/mL (≈ 1.91 µM) | 8 µg/mL (≈ 15.3 µM) | 1 µg/mL (≈ 1.91 µM) | 1 µg/mL (≈ 1.91 µM) | 2 µg/mL (≈ 3.83 µM)
2 | N#Cc1cnc2ccc(=O)n(CCO)c2c1CCC12CCC(NCc3ccc4c(n3)NC(=O)CO4)(CC1)CO2 | 1 µg/mL (≈ 1.88 µM) | 1 µg/mL (≈ 1.88 µM) | 4 µg/mL (≈ 7.54 µM) | 0.125 µg/mL (≈ 0.236 µM) | 4 µg/mL (≈ 7.54 µM) | 16 µg/mL (≈ 30.2 µM)
3 | C[C@@H]1CCc2cc(CNC34CCC(CCc5c(F)cnc6ccc(=O)n(CCO)c56)(CC3)OC4)ncc2O1 | 64 µg/mL (≈ 122 µM) | 1 µg/mL (≈ 1.91 µM) | 32 µg/mL (≈ 61.2 µM) | 1 µg/mL (≈ 1.91 µM) | > 64 µg/mL | > 64 µg/mL
4 | O=c1ccc2ncc(F)c(CCC34CCC(NCc5cc6c(cn5)OCCO6)(CC3)CO4)c2n1CCO | 4 µg/mL (≈ 7.83 µM) | 0.5 µg/mL (≈ 0.979 µM) | 2 µg/mL (≈ 3.92 µM) | 0.125 µg/mL (≈ 0.245 µM) | 16 µg/mL (≈ 31.3 µM) | > 16 µg/mL
5 | O=c1ccc2ncc(F)c(CCC34CCC(NCc5csc(-c6cccs6)n5)(CC3)CO4)c2n1CCO | 32 µg/mL (≈ 59.2 µM) | 1 µg/mL (≈ 1.85 µM) | 16 µg/mL (≈ 29.6 µM) | 0.5 µg/mL (≈ 0.925 µM) | 64 µg/mL (≈ 118 µM) | > 32 µg/mL
6 | O=c1ccc2ncc(F)c(CCC34CCC(NC/C=C/c5cc(F)ccc5F)(CC3)CO4)c2n1CCO | 0.125 µg/mL (≈ 0.243 µM) | 0.063 µg/mL (≈ 0.123 µM) | 2 µg/mL (≈ 3.89 µM) | 0.031 µg/mL (≈ 0.0604 µM) | 2 µg/mL (≈ 3.89 µM) | 8 µg/mL (≈ 15.6 µM)
7 | O=c1ccc2ncc(F)c(CCC34CCC(NCc5cnc(C6CCCCC6)s5)(CC3)CO4)c2n1CCO | > 32 µg/mL | > 32 µg/mL | > 32 µg/mL | > 32 µg/mL | > 32 µg/mL | > 16 µg/mL
8 | CNC(=O)Cn1c(=O)ccc2ncc(F)c(CCC34CCC(NCc5ccc6c(n5)NC(=O)CO6)(CC3)CO4)c21 | 64 µg/mL (≈ 116 µM) | 1 µg/mL (≈ 1.82 µM) | 16 µg/mL (≈ 29.1 µM) | 4 µg/mL (≈ 7.26 µM) | 32 µg/mL (≈ 58.1 µM) | 32 µg/mL (≈ 58.1 µM)
9 | O=c1ccc2ncc(F)c(CCC34CCC(NCc5cnc(-c6ccsc6)s5)(CC3)CO4)c2n1CCO | > 32 µg/mL | 2 µg/mL (≈ 3.7 µM) | > 32 µg/mL | 2 µg/mL (≈ 3.7 µM) | > 32 µg/mL | > 32 µg/mL
10 | COc1ccc2nc(CNC34CCC(CCc5c(F)cnc6ccc(=O)n(CCO)c56)(CC3)OC4)c(F)cc2n1 | > 16 µg/mL | > 16 µg/mL | > 16 µg/mL | > 16 µg/mL | > 16 µg/mL | > 16 µg/mL
11 | C[C@H]1CCc2cc(CNC34CCC(CCc5c(F)cnc6ccc(=O)n(CCO)c56)(CC3)OC4)ncc2O1 | 16 µg/mL (≈ 30.6 µM) | 2 µg/mL (≈ 3.83 µM) | 32 µg/mL (≈ 61.2 µM) | 1 µg/mL (≈ 1.91 µM) | 64 µg/mL (≈ 122 µM) | > 64 µg/mL
12 | Cn1cc(-c2ncc(CNC34CCC(CCc5c(F)cnc6ccc(=O)n(CCO)c56)(CC3)OC4)s2)cn1 | > 32 µg/mL | 8 µg/mL (≈ 14.9 µM) | > 32 µg/mL | 2 µg/mL (≈ 3.71 µM) | > 32 µg/mL | > 32 µg/mL
13 | O=c1ccc2nc(CNC34CCC(CCc5c(F)cnc6ccc(=O)n(CCO)c56)(CC3)OC4)c(F)cc2[nH]1 | > 16 µg/mL | > 16 µg/mL | > 16 µg/mL | > 16 µg/mL | > 16 µg/mL | > 16 µg/mL
14 | O=c1ccc2ncc(F)c(CCC34CCC(NCc5ccc6nonc6c5)(CC3)CO4)c2n1CCO | 64 µg/mL (≈ 130 µM) | 32 µg/mL (≈ 64.8 µM) | 64 µg/mL (≈ 130 µM) | 2 µg/mL (≈ 4.05 µM) | > 64 µg/mL | > 64 µg/mL
15 | COc1ccc2nc(CNC34CCC(CCc5c(F)cnc6ccc(=O)n(CCO)c56)(CC3)OC4)c(F)c(C)c2n1 | 32 µg/mL (≈ 56.6 µM) | 32 µg/mL (≈ 56.6 µM) | 32 µg/mL (≈ 56.6 µM) | 32 µg/mL (≈ 56.6 µM) | 32 µg/mL (≈ 56.6 µM) | 32 µg/mL (≈ 56.6 µM)
16 | CS(=O)(=O)NCCn1c(=O)ccc2ncc(F)c(CCC34CCC(NCc5ccc6c(n5)NC(=O)CO6)(CC3)CO4)c21 | 16 µg/mL (≈ 26.6 µM) | 1 µg/mL (≈ 1.66 µM) | 8 µg/mL (≈ 13.3 µM) | 0.5 µg/mL (≈ 0.832 µM) | 16 µg/mL (≈ 26.6 µM) | 32 µg/mL (≈ 53.3 µM)
17 | NC(=O)Cn1c(=O)ccc2ncc(F)c(CCC34CCC(NCc5ccc6c(n5)NC(=O)CO6)(CC3)CO4)c21 | 64 µg/mL (≈ 119 µM) | 4 µg/mL (≈ 7.45 µM) | 64 µg/mL (≈ 119 µM) | 4 µg/mL (≈ 7.45 µM) | 32 µg/mL (≈ 59.6 µM) | 16 µg/mL (≈ 29.8 µM)
18 | O=c1ccc2ncc(F)c(CCC34CCC(NC[C@@H]5C[C@H]5c5cc(F)ccc5F)(CC3)CO4)c2n1CCO | 32 µg/mL (≈ 60.7 µM) | 1 µg/mL (≈ 1.9 µM) | 16 µg/mL (≈ 30.3 µM) | 0.5 µg/mL (≈ 0.948 µM) | 64 µg/mL (≈ 121 µM) | > 64 µg/mL
19 | O=c1ccc2ncc(F)c(CCC34CCC(NCc5cnc(-c6ccccn6)s5)(CC3)CO4)c2n1CCO | > 32 µg/mL | > 32 µg/mL | > 32 µg/mL | > 32 µg/mL | > 32 µg/mL | > 16 µg/mL
20 | O=c1ccc2ncc(F)c(CCC34CCC(NCCCc5cc(F)ccc5F)(CC3)CO4)c2n1CCO | 1 µg/mL (≈ 1.94 µM) | 0.5 µg/mL (≈ 0.97 µM) | 16 µg/mL (≈ 31 µM) | 0.125 µg/mL (≈ 0.242 µM) | 16 µg/mL (≈ 31 µM) | 64 µg/mL (≈ 124 µM)
21 | O=c1ccc2ncc(=O)n3c2n1C[C@H]3CN1CCC(NCc2cc3c(cn2)OCCC3)CC1 [GEPOTIDACIN] |  |  |  | 0.25 µg/mL (≈ 0.557 µM) | 2 µg/mL (≈ 4.46 µM) | 
